Experimental data as given in PMC9891357 (Molecular Cancer Therapeutics, 2022).

How the values were obtained:
USP46 = USP46 (Homo sapiens, UniProt P62068); assay: Ubiquigent DUBprofiler biochemical panel, […] inhibition at […]
USP12 = USP12 (Homo sapiens, UniProt O75317); assay: as above
USP12, sequence (O75317 whole entry): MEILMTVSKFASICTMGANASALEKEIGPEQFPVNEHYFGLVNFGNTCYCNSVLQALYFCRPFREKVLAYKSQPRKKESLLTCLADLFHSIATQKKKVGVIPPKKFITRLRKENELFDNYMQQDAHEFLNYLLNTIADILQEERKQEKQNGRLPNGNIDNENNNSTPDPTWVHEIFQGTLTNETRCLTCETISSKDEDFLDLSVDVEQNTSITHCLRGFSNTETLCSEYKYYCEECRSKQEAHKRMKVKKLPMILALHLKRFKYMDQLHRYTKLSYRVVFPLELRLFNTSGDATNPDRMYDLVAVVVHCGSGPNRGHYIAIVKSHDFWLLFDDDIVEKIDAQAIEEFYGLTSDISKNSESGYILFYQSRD
USP12, sequence (Q8TAF3 whole entry partner): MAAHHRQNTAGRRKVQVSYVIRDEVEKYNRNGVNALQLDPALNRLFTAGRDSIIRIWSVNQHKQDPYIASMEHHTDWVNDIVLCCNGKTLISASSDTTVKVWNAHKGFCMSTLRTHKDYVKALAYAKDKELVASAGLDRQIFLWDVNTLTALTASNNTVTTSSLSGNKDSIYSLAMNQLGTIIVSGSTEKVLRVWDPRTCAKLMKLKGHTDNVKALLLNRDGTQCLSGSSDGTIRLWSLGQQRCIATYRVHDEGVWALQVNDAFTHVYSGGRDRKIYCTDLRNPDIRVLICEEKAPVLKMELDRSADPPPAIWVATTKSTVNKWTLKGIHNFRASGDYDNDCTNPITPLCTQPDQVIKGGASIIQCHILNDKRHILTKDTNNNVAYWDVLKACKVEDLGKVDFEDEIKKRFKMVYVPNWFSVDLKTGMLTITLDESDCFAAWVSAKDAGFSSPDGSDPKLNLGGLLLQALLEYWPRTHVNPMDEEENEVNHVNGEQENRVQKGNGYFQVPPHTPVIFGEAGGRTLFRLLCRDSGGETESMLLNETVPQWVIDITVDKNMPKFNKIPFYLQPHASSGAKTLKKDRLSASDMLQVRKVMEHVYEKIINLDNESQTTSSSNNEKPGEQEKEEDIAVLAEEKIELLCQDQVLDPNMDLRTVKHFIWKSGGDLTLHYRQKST

USP46, sequence (P62068 whole entry): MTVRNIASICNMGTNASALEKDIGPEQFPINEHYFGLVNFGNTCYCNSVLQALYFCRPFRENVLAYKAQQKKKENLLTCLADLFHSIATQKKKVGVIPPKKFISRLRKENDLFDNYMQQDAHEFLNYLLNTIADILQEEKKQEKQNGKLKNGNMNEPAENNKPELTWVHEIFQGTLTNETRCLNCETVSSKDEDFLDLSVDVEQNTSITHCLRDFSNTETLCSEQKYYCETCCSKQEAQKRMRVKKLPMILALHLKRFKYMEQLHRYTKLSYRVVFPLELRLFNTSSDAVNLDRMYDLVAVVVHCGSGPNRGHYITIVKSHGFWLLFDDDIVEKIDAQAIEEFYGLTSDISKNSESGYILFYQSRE
USP46, sequence (Q8TAF3 whole entry partner): as the sequence (Q8TAF3 whole entry partner) above

## CC(C)c1ccccc1-c1ncc2[nH]c(=O)n(Cc3ccc(-c4nc(C(F)(F)F)cn4C)cc3)c2n1 [I-138, 2-(2-isopropylphenyl)-9-(4-(1-methyl-4-(trifluoromethyl)-1H-imidazol-2-yl)benzyl)-7,9-dihydro-8H-purin-8-one]
USP46
  IC50: ~ 10 μmol/L
USP12
  IC50: ~ 10 μmol/L
